Results published in patent US8558056B2, “LysM receptor-like kinases to improve plant defense response against fungal pathogens” (The Curators of the University of Missouri, priority 2006, dated 2013).

How the values were obtained:
[1] = tested on: Arabidopsis LysM RLK genes; experiment: DNA microarray (Affymetrix 24K chip) of plants sprayed with chitin; assay type: in vivo, Arabidopsis thaliana; conditions: leaves sprayed with chitin (100 μM)+0.2% Tween-20
Procedure: A total of five LysM receptor-like kinase genes were identified in Arabidopsis from the studies described in Example 1. The Genbank numbers of these five genes are AtLYK1 (GenBank accession #At3g21630), AtLYK2 (GenBank accession # At3g01840), AtLYK3 (GenBank accession #At1g51940), AtLYK4 (GenBank accession # At2g23770), AtLYK5 (GenBank accession #At2g33580), and, which are designated as SEQ ID. Nos. 3-7, respectively. A DNA microarray experiment was performed by treating Arabidopsis plants with chitin. Leaves were treated by spraying with chitin (100 μM)+0.2% Tween-20. The Affymetrix 24K Arabidopsis genome chip was utilized according to the manufacturer's instructions for this test. […] The data implicate these genes in plant chitin response.

[2] = tested on: transcription factors; experiment: qRT-PCR of transcription factors after chitin treatment; parameters: species or system Arabidopsis thaliana; conditions: in vivo
Procedure: Based on the genome-wide gene expression studies using microarrays, quantitative reverse transcriptase-polymerase chain reaction (qRT-PCR) was conducted to identify over 120 different transcription factors in Arabidopsis thaliana whose expression is enhanced by chitin treatment. Many of these transcription factors are known to be involved in fungal pathogen response. […] Each of these transcription factors is a potential target for genetic manipulation in order to enhance disease resistance. The results of this study are described in greater details in Libault et al., 2007, which is hereby expressly incorporated by reference.

[3] = tested on: soybean LysM RLK genes; experiment: Expression analysis of GmLysM receptor-like kinases in chitin-treated leaves; assay type: in vivo; conditions: leaves sprayed with chitin (100 μM)+0.2% Tween-20
Procedure: Soybean genotypes used for mapping of soybean QTLs for white mold resistance included Corsoy 79 and Dassel. […] Finally, as was the case with Arabidopsis, some of the soybean LysM RLK genes are induced upon treatment of soybean with chitin, as confirmed by the results shown in FIG. 20. Leaves were treated by spraying with chitin (100 μM)+0.2% Tween-20.

[4] = tested on: Alternaria brassicicola; experiment: Pretreatment before inoculation with Alternaria brassicicola (lesion size, spore production); assay type: in vivo, Arabidopsis thaliana
Description: The susceptibility appeared to be less than that observed in NahG plants, which express salicylate hydrolase, preventing the accumulation of salicylic acid, and are therefore very susceptible to the fungal pathogen (FIG. 13A). […] Arrows indicate sites where conidiophores are forming. All photographs were taken six days after inoculation. Bar=0.1 mm. 4-week-old plants were also inoculated with the necrotrophic fungus Alternaria brassicicola. Three days after inoculation, the mutant developed slightly bigger lesions than the wild-type plants, as measured by average diameter of the lesions (FIGS. 13C and 13D). In agreement with this, the mutant plants also produced more spores per lesion than the wild-type plants (FIG. 13E).
(§1) To test the specificity of AtLysM RLK1 in fungal disease resistance, the response of the mutant to the bacterial pathogen Pseudomonas syringae pv. Tomato DC3000 was also examined. […] WT=wild-type Col-0; Mu=the AtLysM RLK1 mutant. CSC=crab shell chitin, 8mer=chitooctaose, and water=distilled water. Empty columns=WT Col-0 and solid black columns=the AtLysM RLK1 mutant. Asterisks indicate statistically significant differences between the mutant and wild-type plants (P<0.05). Error bars=standard error. Each experiment was repeated at least twice with similar results.

[5] = tested on: AtLysM RLK1 mutant gene expression (chitooligosaccharide-responsive genes, CRGs); experiment: Affymetrix ATH1 whole genome array, response to chitooctaose in the AtLysM RLK1 mutant; assay type: in vivo, Arabidopsis thaliana
Procedure: (§2) More particularly, Arabidopsis seedlings were grown hydroponically as described by Ramonell et al., 2005. Fourteen-day old seedlings were treated with chitooctaose (Sigma, St. Louis, Mo., USA) at a concentration of 1 μM or with distilled water (as a control) for 30 minutes. To test flagellin-responsive genes, 14-day old seedlings were also treated with the flagellinderived flg22 peptide (dissolved in dimethyl sulfoxide, DMSO) at a final concentration of 10 μM or with an equivalent amount of DMSO (as a control) for 30 minutes. To test other defense pathways, Arabidopsis seedlings were also treated for 24 hours with 5 mM SA, 100 μM MeJA, and 0.5 mM ACC (all obtained from Sigma, St. Louis, Mo., USA) and dissolved in 0.1% ethanol. The control plants were similarly treated with an equivalent amount of ethanol. After treatment, the seedlings were collected and frozen in liquid nitrogen for RNA isolation.
(§3) Total RNA was isolated using the Trizol Reagent according to the manufacturer's instructions (Invitrogen, Carlsbad, Calif.). The isolated RNA was further purified using Qiagen RNeasy Mini Columns according to the manufacturer's instruction (Qiagen, Valencia, Calif., USA) and treated with Turbo™ DNase (Ambion, Austin, Tex., USA). For semi-quantitative RT-PCR or quantitative 17 PCR, cDNA was synthesized using M-MLV reverse transcriptase according to the manufacturer's instructions (Promega, Madison, Wis., USA).
The AtLysM RLK1 insertion mutant (096F09) used in the current work was generated in the context of the GABI-Kat program and provided by Bernd Weisshaar (MPI for Plant Breeding Research, Cologne, Germany). See Shibuya et al., 2001. The homozygous plants were identified by genotyping using the following gene-specific primers: […]
(§4) Gene expression profiles in the AtLysM RLK1 mutant in response to chitooctaose were studied using the Affymetrix Arabidopsis Whole Genome Array ATH1 (with ˜22000 genes), with wild-type plants as a control. […] A row represents a gene and each column represents a sample. WT-8mer=wild-type Col-0 treated with chitooctaose; WT-water=wild-type Col-0 treated with distilled water; Mu-water=the AtLysM RLK1 mutant treated with distilled water; Mu-8mer=the AtLysM RLK1 mutant treated with chitooctaose. The color bar below the cluster picture: the red color indicates the expression level of a gene is above the mean expression of the gene across all samples; the green color indicates expression lower than the mean.

[6] = tested on: Pseudomonas syringae pv. tomato DC3000; experiment: Pretreatment before inoculation with Pseudomonas syringae pv. tomato DC3000 (bacterial growth); assay type: in vivo, Arabidopsis thaliana
Description: as §1

[7] = tested on: AtLysM RLK1 gene; experiment: RT-PCR of AtLysM RLK1 gene expression after elicitor treatment; assay type: in vivo, Arabidopsis thaliana; conditions: seedlings, chitooctaose 1 μM, 30 minutes
Procedure: as §2
These two primers were also used to detect the expression of the AtLysM RLK1 gene via RT-PCR. The other primers used to detect the transcript 5′ of the insertion site were as follows:
The expression pattern of the AtLysM RLK1 gene was also studied. […]

[8] = tested on: selected CRGs (LjMPK3, LjWRKY22, LjWRKY33, LjWRKY53); experiment: Semi-quantitative RT-PCR of selected CRGs in Lotus japonicus Nod signal receptor mutants; assay type: in vivo; conditions: chitooctaose 1 μM, 30 minutes; wild type Gifu as comparison
Procedure: PCR reactions were conducted using Taq polymerase (Promega, Madison, Wis., USA) under the following conditions: 94° C., 3 minutes; 94° C., 30 seconds; 55° C., 30 seconds; 72° C., 1.5 minutes; 25 cycles; 72° C., 3 minutes. The corresponding CRG genes in Lotus japonicus were identified by blasting the cDNA sequences of the above Arabidopsis CRGs (and also actin-2) against the TIGR Lotus japonicus Gene Index. The closest hits were chosen and arbitrarily named after their Arabidopsis counterparts with the prefix Lj (standing for Lotus japonicus). The following primer pairs were designed to detect these genes:
LjActin-2 was used as an internal control.
LysM RLK NFR1 and NFR5 Nod signal receptors specifically recognize a lipochitin molecule with a back-bone of 4-5 units of N-acetyl-D-glucosamine. For review, see Stacey et al. 2006. […] In more details, both the wild type (Gifu) and the Nod signal receptor mutants nfr1-1 and nfr5-1 were treated with chitooctaose for 30 minutes at a concentration of 1 μM or with water (as a control). The selected CRGS were detected using semi-quantitative RT-PCR. LjActin-2 was used as an internal control.

[9] = tested on: wild-type Col-0 gene expression (chitooligosaccharide-responsive genes, CRGs); experiment: Affymetrix ATH1 whole genome array, response to chitooctaose in wild-type plants; assay type: in vivo, Arabidopsis thaliana
Procedure: as §2, §3, §4

[10] = tested on: selected CRGs (MPK3, WRKY22, WRKY29, WRKY33, WRKY53); experiment: Semi-quantitative RT-PCR of selected CRGs after chitooctaose; assay type: in vivo, Arabidopsis thaliana; conditions: chitooctaose or water for 30 minutes; mutant vs wild type
Procedure: To test whether non-leguminous LysM RLKs may be involved in the perception of chitooligosaccharides and the subsequent induction of downstream genes that have been implicated in fungal defense, T-DNA insertion mutants were obtained for all five LysM RLK genes (i.e., At1g51940, At2g23770, At2g33580, At3g01840, and At3g21630) in Arabidopsis. The gene At3g21630 (SEQ ID. No. 3) is also termed AtLYK1 or AtLysM RLK1. Homozygous mutants were then treated with a purified chitooligosaccharide (chitooctaose) and the expression levels of known CRGs, such as MPK3 (At3g45640, SEQ ID. No. 8), WRKY22 (At4g01250, SEQ ID. No. 9), WRKY29 (At4g23550, SEQ ID. No. 10), WRKY33 (At2g38470, SEQ ID. No. 11), and WRKY53 (At4g23810, SEQ ID. No. 12), were measured.
More particularly, Arabidopsis seedlings were grown hydroponically as described by Ramonell et al., 2005. […]
Total RNA was isolated using the Trizol Reagent according to the manufacturer's instructions (Invitrogen, Carlsbad, Calif.). […] For semi-quantitative RT-PCR or quantitative 17 PCR, cDNA was synthesized using M-MLV reverse transcriptase according to the manufacturer's instructions (Promega, Madison, Wis., USA). […]
Both the mutant (Mu) and wildtype (WT) plants were treated with purified chitooctaose or water (as a control) for 30 minutes and gene expression of the selected CRGs was detected using semi-quantitative RT-PCR. […]

[11] = pretreatment of AtLysM RLK1 mutant plants
[12] = pretreatment of wild-type plants

For chitin, the “increase in transcription of At2g23770” value [1] was 2 fold, the “increase in transcription of At2g33580” value [1] was 13 fold and the “increase in transcription of At3g21630” value [1] was 2 fold. The “number of transcription factors whose expression is enhanced by chitin treatment” value [2] was “over 120 transcription factors” and the “induction of soybean LysM RLK genes” value [3] was “induced”.

With chitooligosaccharides the “resistance after pretreatment, A. brassicicola” value [4, 11] was “did not enhance resistance”, the “disease symptoms (lesion size and spore production) after A. brassicicola inoculation” value [4, 12] was “reduced disease symptoms” and the “share of CRGs whose regulation is blocked by the AtLysM RLK1 mutation” value ([5]; AtLysM RLK1 mutant vs wild type) was ~98%. The “resistance after pretreatment, P. syringae pv. tomato DC3000” value [6, 11] was “did not enhance resistance”, the “growth of the bacterial pathogen P. syringae pv. tomato DC3000” value [6, 12] was “inhibited the growth” and the “induction of the AtLysM RLK1 gene” value [7] was “induced”.

CC(=O)N[C@H]1[C@H](O[C@H]2[C@H](O)[C@@H](NC(C)=O)[C@H](O[C@H]3[C@H](O)[C@@H](NC(C)=O)[C@H](O[C@H]4[C@H](O)[C@@H](NC(C)=O)C(O)O[C@@H]4CO)O[C@@H]3CO)O[C@@H]2CO)O[C@H](CO)[C@@H](O[C@@H]2O[C@H](CO)[C@@H](O[C@@H]3O[C@H](CO)[C@@H](O[C@@H]4O[C@H](CO)[C@@H](O[C@@H]5O[C@H](CO)[C@@H](O)[C@H](O)[C@H]5NC(C)=O)[C@H](O)[C@H]4NC(C)=O)[C@H](O)[C@H]3NC(C)=O)[C@H](O)[C@H]2NC(C)=O)[C@@H]1O (some centres unmarked) [chitooctaose] was tested, and the “induction of the selected CRGs in L. japonicus nfr1-1 and nfr5-1 mutants” value [8] was “did not block the induction”, the “number of down-regulated genes in the mutant” value ([5]; AtLysM RLK1 mutant) was 17 genes and the “number of up-regulated genes in the mutant” value ([5]; AtLysM RLK1 mutant) was 16 genes. The “number of genes responsive in the mutant” value ([5]; out of 909, AtLysM RLK1 mutant) was 33 genes, the “number of down-regulated genes in wild-type plants” value ([9]; 1.5 fold, P<0.05) was 227 genes and the “number of up-regulated genes in wild-type plants” value ([9]; 1.5 fold, P<0.05) was 663 genes. For the same compound, the “number of genes that responded more than 1.5 fold (P<0.05) to chitooctaose elicitation” value ([9]; in both the wild-type and mutant plants, 30 minutes after the treatment) was 909 genes, the “number of genes with a change in transcript levels in wild-type plants” value ([9]; out of the 909 genes, 1.5 fold, P<0.05) was 890 genes and the “induction of the selected CRGs in the AtLysM RLK1 insertion mutant” value [10] was “almost completely blocked the induction”.
